# Test results reported in patent US7138361B2, “Herbicidal heterocycles” (E. I. du Pont de Nemours and Company, priority 2000, dated 2006).
# Experiments:
# Assay type in all cases: in vivo
# [1] = test system: Nightshade; assay: Test C preemergence; details: visual evaluation after 12 to 14 days
# [2] = test system: kochia (Kochia scoparia); assay: Test C preemergence; details: for Plant response rating (0 to 100), Kochia: visual evaluation after 12 to 14 days
# Summary of the method: (§1)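 Test chemicals, formulated in a non-phytotoxic solvent mixture with surfactant, were applied preemergence to planted seeds or postemergence to plants 2 to 18 cm tall (1- to 4-leaf stage). After 12 to 14 days in a greenhouse, injury was visually rated against untreated controls on a 0–100 scale.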
# [3] = test system: Nightshade; assay: Test C preemergence
# [4] = test system: lambsquarters (Chenopodium album); assay: Test C preemergence; details: for Plant response rating (0 to 100), Lambsquarters: visual evaluation after 12 to 14 days
# Summary of the method: as §1
# [5] = test system: soybean (Glycine max); assay: Test C preemergence; details: for Plant response rating (0 to 100), Soybean: visual evaluation after 12 to 14 days
# Summary of the method: as §1
# [6] = test system: yellow nutsedge (Cyperus esculentus); assay: Test C preemergence; details: for Plant response rating (0 to 100), Nutsedge: visual evaluation after 12 to 14 days
# Summary of the method: as §1
# [7] = test system: corn (Zea mays); assay: Test C preemergence; details: for Plant response rating (0 to 100), Corn: visual evaluation after 12 to 14 days
# Summary of the method: as §1
# [8] = test system: woolly cupgrass (Eriochloa villosa); assay: Test C preemergence; details: for Plant response rating (0 to 100), Cupgrass, Woolly: visual evaluation after 12 to 14 days
# Summary of the method: as §1
# [9] = test system: pigweed (Amaranthus retroflexus); assay: Test C preemergence; details: for Plant response rating (0 to 100), Pigweed: visual evaluation after 12 to 14 days
# Summary of the method: as §1
# [10] = test system: johnsongrass (Sorghum halepense); assay: Test C preemergence; details: for Plant response rating (0 to 100), Johnsongrass: visual evaluation after 12 to 14 days
# Summary of the method: as §1
# [11] = test system: rice (Oryza saliva); assay: Test C flooded paddy test; details: for Rice plant response rating: Flooded Paddy, scale 0 to 100, 0 no effect, 100 complete control; for Plant response rating, Rice: flooded paddy test, scale 0 to 100 (0 no effect, 100 complete control)
# Summary of the method: (§2)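 Greenhouse-maintained for 12 to 14 days after treatment, the paddy plants (2-leaf stage at application) were scored visually against controls. A score of 0 denotes no effect and a score of 100 denotes complete control.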
# [12] = test system: duck salad (Heteranthera limosa); assay: Test C flooded paddy test; details: for Ducksalad plant response rating: Flooded Paddy, scale 0 to 100, 0 no effect, 100 complete control; for Plant response rating, Ducksalad: flooded paddy test, scale 0 to 100 (0 no effect, 100 complete control)
# Summary of the method: as §2
# [13] = test system: barnyardgrass (Echinochloa crus-galli); assay: Test C flooded paddy test; details: for Barnyardgrass plant response rating: Flooded Paddy, scale 0 to 100, 0 no effect, 100 complete control; for Plant response rating, Barnyardgrass: flooded paddy test, scale 0 to 100 (0 no effect, 100 complete control)
# Summary of the method: as §2
# [14] = test system: smallflower flatsedge (Cyperus difformis); assay: Test C flooded paddy test; details: for Flatsedge plant response rating: Flooded Paddy, scale 0 to 100, 0 no effect, 100 complete control; for Plant response rating, Flatsedge: flooded paddy test, scale 0 to 100 (0 no effect, 100 complete control)
# Summary of the method: as §2
# [15] = test system: Sunflower; assay: Test C preemergence; details: scale 0 to 100, 0 no effect, 100 complete control
# [16] = test system: wheat (Triticum aestivum); assay: Test B postemergence
# Summary of the method: (§3)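 Pre: seeded pots sprayed, chemical in non-phytotoxic solvent/surfactant mix. Post: plants 2–18 cm, 1–4 leaf, same formulation. Greenhouse 13–15 d; visual % control vs untreated, 0–100 scale.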
# [17] = test system: wild oat (Avena fatua); assay: Test B postemergence
# Summary of the method: as §3
# [18] = test system: corn (Zea mays); assay: Test B postemergence
# Summary of the method: as §3
# [19] = test system: barnyardgrass (Echinochloa crus-galli); assay: Test B postemergence
# Summary of the method: as §3
# [20] = Preemergence, Rate 500 g/ha, scale 0 to 100
# [21] = Rate 62 g/ha, scale 0 to 100, 0 no effect, 100 complete control
# [22] = preemergence, Rate 31 g/ha, scale 0 to 100
# [23] = preemergence, Rate 125 g/ha, scale 0 to 100, 0 no effect, 100 complete control
# [24] = Rate 125 g/ha, scale 0 to 100, 0 no effect, 100 complete control
# [25] = Rate 125 g/ha, scale 0 (no effect) to 100 (complete control), 13 to 15 days
# [26] = Rate 500 g/ha, scale 0 to 100, 0 is no effect, 100 is complete control, 13 to 15 days
# [27] = preemergence, Rate 62 g/ha, scale 0 to 100
# [28] = preemergence, Rate 250 g/ha, scale 0 to 100, 0 no effect, 100 complete control
structure (smiles),measurement,setting,value
CCC(CC)c1ccn(C2SCN(c3cccc(C(F)(F)F)c3)C2=O)n1 (stereo not drawn) [Compound 25],"Plant response rating (0 to 100), Nightshade",[1]; Rate 250 g/ha,90
same,"Plant response rating, Kochia",[2]; [20],100
same,"Plant response rating, Kochia",[2]; [21],50
same,"Plant response rating, Kochia",[2]; [22],60
same,"Plant response rating (0 to 100), Kochia","[2]; preemergence, Rate 250 g/ha",100
same,"Plant response rating, Kochia",[2]; [23],100
same,"Plant response rating, Nightshade","[3]; Rate 31 g/ha, scale 0 to 100",20
same,"Plant response rating, Nightshade","[3]; Rate 62 g/ha; scale 0 to 100, 0 no effect, 100 complete control",100
same,"Plant response rating, Nightshade",[3]; [24],100
same,"Plant response rating, Nightshade","[3]; Rate 500 g/ha, scale 0 to 100",100
same,"Plant response rating, Lambsquarters",[4]; [20],100
same,"Plant response rating, Lambsquarters",[4]; [21],100
same,"Plant response rating, Lambsquarters",[4]; [22],100
same,"Plant response rating (0 to 100), Lambsquarters","[4]; preemergence, Rate 250 g/ha",100
same,"Plant response rating, Lambsquarters",[4]; [23],100
same,"Plant response rating, Soybean",[5]; [20],60
same,"Plant response rating, Soybean",[5]; [21],0
same,"Plant response rating, Soybean",[5]; [22],20
same,"Plant response rating (0 to 100), Soybean","[5]; preemergence, Rate 250 g/ha",50
same,"Plant response rating, Soybean",[5]; [23],30
same,"Plant response rating, Nutsedge",[6]; [20],0
same,"Plant response rating, Nutsedge",[6]; [21],0
same,"Plant response rating, Nutsedge",[6]; [22],0
same,"Plant response rating (0 to 100), Nutsedge","[6]; preemergence, Rate 250 g/ha",40
same,"Plant response rating, Nutsedge",[6]; [23],0
same,"Plant response rating, Corn",[7]; [20],50
same,"Plant response rating, Corn",[7]; [21],0
same,"Plant response rating, Corn",[7]; [22],0
same,"Plant response rating (0 to 100), Corn","[7]; preemergence, Rate 250 g/ha",20
same,"Plant response rating, Corn",[7]; [23],20
same,"Plant response rating, Cupgrass, Woolly",[8]; [20],100
same,"Plant response rating, Cupgrass, Woolly",[8]; [21],80
same,"Plant response rating, Cupgrass, Woolly",[8]; [22],60
same,"Plant response rating (0 to 100), Cupgrass, Woolly","[8]; preemergence, Rate 250 g/ha",100
same,"Plant response rating, Cupgrass, Woolly",[8]; [23],100
same,"Plant response rating, Pigweed",[9]; [20],90
same,"Plant response rating, Pigweed",[9]; [21],60
same,"Plant response rating, Pigweed",[9]; [22],100
same,"Plant response rating (0 to 100), Pigweed","[9]; preemergence, Rate 250 g/ha",90
same,"Plant response rating, Pigweed",[9]; [23],100
same,"Plant response rating, Johnsongrass",[10]; [20],100
same,"Plant response rating, Johnsongrass",[10]; [21],70
same,"Plant response rating, Johnsongrass",[10]; [22],30
same,"Plant response rating (0 to 100), Johnsongrass","[10]; preemergence, Rate 250 g/ha",90
same,"Plant response rating, Johnsongrass",[10]; [23],90
same,Rice plant response rating,[11]; Rate 250 g/ha,60
same,Rice plant response rating,[11]; Rate 500 g/ha,80
same,"Plant response rating, Rice",[11]; Rate 62 g/ha,30
same,"Plant response rating, Rice",[11]; Rate 125 g/ha,20
same,Ducksalad plant response rating,[12]; Rate 250 g/ha,100
same,Ducksalad plant response rating,[12]; Rate 500 g/ha,100
same,"Plant response rating, Ducksalad",[12]; Rate 62 g/ha,100
same,"Plant response rating, Ducksalad",[12]; Rate 125 g/ha,100
same,Barnyardgrass plant response rating,[13]; Rate 250 g/ha,100
same,Barnyardgrass plant response rating,[13]; Rate 500 g/ha,100
same,"Plant response rating, Barnyardgrass",[13]; Rate 62 g/ha,100
same,"Plant response rating, Barnyardgrass",[13]; Rate 125 g/ha,100
same,Flatsedge plant response rating,[14]; Rate 250 g/ha,100
same,Flatsedge plant response rating,[14]; Rate 500 g/ha,100
same,"Plant response rating, Flatsedge",[14]; Rate 62 g/ha,100
same,"Plant response rating, Flatsedge",[14]; Rate 125 g/ha,100
same,"Plant response rating, Sunflower",[15]; Rate 125 g/ha,40
same,"Plant response rating, Wheat",[16]; [25],0
same,"Plant response rating, Wheat",[16]; [26],0
same,"Plant response rating, Wild Oat",[17]; [25],0
same,"Plant response rating, Wild Oat",[17]; [26],0
same,"Plant response rating, Corn",[18]; [25],0
same,"Plant response rating, Corn",[18]; [26],60
same,"Plant response rating, Barnyardgrass",[19]; [25],100
same,"Plant response rating, Barnyardgrass",[19]; [26],100
CCC(C)Oc1cccc(N2CCC(n3ccc(C(C)(C)C)n3)C2=O)c1 (stereo not drawn) [Compound 127],"Plant response rating (0 to 100), Nightshade",[1]; Rate 500 g/ha,100
same,"Plant response rating, Kochia",[2]; [24],0
same,"Plant response rating, Kochia",[2]; [27],0
same,"Plant response rating (0 to 100), Kochia","[2]; preemergence, Rate 500 g/ha",0
same,"Plant response rating, Kochia",[2]; [28],0
same,"Plant response rating, Nightshade","[3]; Rate 62 g/ha, scale 0 to 100",0
same,"Plant response rating, Nightshade","[3]; Rate 125 g/ha; scale 0 to 100, 0 no effect, 100 complete control",0
same,"Plant response rating, Nightshade","[3]; Rate 250 g/ha, scale 0 to 100, 0 no effect, 100 complete control",0
same,"Plant response rating, Lambsquarters",[4]; [24],80
same,"Plant response rating, Lambsquarters",[4]; [27],20
same,"Plant response rating (0 to 100), Lambsquarters","[4]; preemergence, Rate 500 g/ha",100
same,"Plant response rating, Lambsquarters",[4]; [28],100
same,"Plant response rating, Soybean",[5]; [24],0
same,"Plant response rating, Soybean",[5]; [27],0
same,"Plant response rating (0 to 100), Soybean","[5]; preemergence, Rate 500 g/ha",0
same,"Plant response rating, Soybean",[5]; [28],0
same,"Plant response rating, Nutsedge",[6]; [24],0
same,"Plant response rating, Nutsedge",[6]; [27],0
same,"Plant response rating (0 to 100), Nutsedge","[6]; preemergence, Rate 500 g/ha",0
same,"Plant response rating, Nutsedge",[6]; [28],0
same,"Plant response rating, Corn",[7]; [24],0
same,"Plant response rating, Corn",[7]; [27],0
same,"Plant response rating (0 to 100), Corn","[7]; preemergence, Rate 500 g/ha",30
same,"Plant response rating, Corn",[7]; [28],30
same,"Plant response rating, Cupgrass, Woolly",[8]; [24],50
same,"Plant response rating, Cupgrass, Woolly",[8]; [27],0
same,"Plant response rating (0 to 100), Cupgrass, Woolly","[8]; preemergence, Rate 500 g/ha",100
same,"Plant response rating, Cupgrass, Woolly",[8]; [28],90
same,"Plant response rating, Pigweed",[9]; [24],0
same,"Plant response rating, Pigweed",[9]; [27],0
same,"Plant response rating (0 to 100), Pigweed","[9]; preemergence, Rate 500 g/ha",0
same,"Plant response rating, Pigweed",[9]; [28],0
same,"Plant response rating, Johnsongrass",[10]; [24],0
same,"Plant response rating, Johnsongrass",[10]; [27],0
same,"Plant response rating (0 to 100), Johnsongrass","[10]; preemergence, Rate 500 g/ha",0
same,"Plant response rating, Johnsongrass",[10]; [28],0
same,Rice plant response rating,[11]; Rate 250 g/ha,0
same,Rice plant response rating,[11]; Rate 500 g/ha,0
same,"Plant response rating, Rice",[11]; Rate 62 g/ha,0
same,"Plant response rating, Rice",[11]; Rate 125 g/ha,0
same,Ducksalad plant response rating,[12]; Rate 250 g/ha,50
same,Ducksalad plant response rating,[12]; Rate 500 g/ha,80
same,"Plant response rating, Ducksalad",[12]; Rate 62 g/ha,0
same,"Plant response rating, Ducksalad",[12]; Rate 125 g/ha,0
same,Barnyardgrass plant response rating,[13]; Rate 250 g/ha,20
same,Barnyardgrass plant response rating,[13]; Rate 500 g/ha,50
same,"Plant response rating, Barnyardgrass",[13]; Rate 62 g/ha,0
same,"Plant response rating, Barnyardgrass",[13]; Rate 125 g/ha,0
same,Flatsedge plant response rating,[14]; Rate 250 g/ha,80
same,Flatsedge plant response rating,[14]; Rate 500 g/ha,90
same,"Plant response rating, Flatsedge",[14]; Rate 62 g/ha,0
same,"Plant response rating, Flatsedge",[14]; Rate 125 g/ha,0
same,"Plant response rating, Sunflower",[15]; Rate 250 g/ha,0
same,"Plant response rating, Wheat",[16]; [24],0
same,"Plant response rating, Wild Oat",[17]; [24],0
same,"Plant response rating, Corn",[18]; [24],0
same,"Plant response rating, Corn",[18]; [26],0
same,"Plant response rating, Barnyardgrass",[19]; [24],0
same,"Plant response rating, Barnyardgrass",[19]; [26],0
